According to patent publication USRE39707E1, “Camptothecin derivatives” (Catholic Healthcare West, priority 2001, dated 2007):

What was measured:
PC-3 = assay: Cell colony formation assay, PC-3 cells; type: cell-based, human; conditions: 72 hours drug exposure
Method: (§1) This example provides directions for growing cells and testing compounds of the invention for their effect on the growth of the cells. All cells were purchased from DCIDC Tumor Repository, NCI, NIH.
(§2) Four hundred cells (HCT 116, PC-3, NCI/ADR-RES: human breast cancer cells) or five hundred cells (VM46) were plated in 60 mm Petri dishes containing 2.7 ml of medium (modified McCoy's 5a medium) containing 10% fetal bovine serum and 100 units/ml penicillin and 100 mg/ml streptomycin. The cells were incubated in a CO2 incubator at 37° C. for 5 hours for attachment to the bottom of Petri dishes. Drugs were made fresh in medium at ten times the final concentration, and then 0.3 ml of this stock solution was added to the 2.7 ml of medium in the dish. The cells were then incubated with drugs for 72 hours at 37° C. At the end of the incubation the drug-containing media were decanted, the dishes were rinsed with 4 ml of Hank's Balance Salt Solution (HBSS), 5 ml of fresh medium was added, and the dishes were returned to the incubator for colony formation. The cell colonies were counted using colony counter after incubation for 7 days for HCT116 cells and PC-3 cells and 8 days for VM46 cells, respectively.
(§3) Values of ID50 (the drug concentration producing 50% inhibition of colony formation) may be determined for each tested compound. The directions described in this example may be used in other cells, such as DU-145.

[1] = tested on: MTG-B mouse mammary Adenocarcinoma; assay: In vivo efficacy in C3H/HeJ mice bearing MTG-B tumors; conditions: for T (Surviving days after treatment of MTG-B mouse mammary Adenocarcinoma In C3H/Hej mice): i.p., control mice survived 6 days; for CD/Taxol: ratio of extra days of survival with compound to extra days of survival with taxol, each compared to control; for T/C %: surviving days treated / surviving days control x 100%, control 6 days
Method: This example provides directions for performing in vivo efficacy tests of the compounds of the invention on C3H/HeJ mice bearing MTG-B tumors.
Studies on the compounds of this invention were performed on C3H/HeJ mice bearing […] tumors. […] Treatment was initiated at that time, with the first day of treatment designated as day 0 for calculation and plots. The mice were injected i.p. with thee drug dose levels (⅓, ½, 1×MTD) using both a single injection and the schedule of Q2D×3 (every 2 days for a total of 3 treatments at ⅓ MTD). Control groups of mice bearing 8 mm diameter tumors were treated with vehicle alone. […] When a tumor reached 1.5 g, the mouse bearing the tumor was euthanized. Surviving days measured from day 0 for mice treated with anticancer drugs (T) and surviving days measured from day 0 for control mice (C) were recorded. Tumor growth inhibition values (T/C %) were calculated using the formula T/C %=(surviving days of mice treated with an anticancer drug T/surviving days of control mice C)×100%, as shown in Table II.
The final right-hand column in Table II provides a ratio of the extra days of survival of mice treated with the compounds of the invention (compared to control) to the extra days of survival of mice treated with taxol (compared to control).

C3H/HeJ mice = conditions: maximum tolerated dose at day 40, C3H/HeJ mice
Method: This example provides directions for performing in vivo toxicity tests of the compounds of the invention on C3H/HeJ mice.
Acute toxicities of the compounds of this invention are evaluated on C3H/HeJ mice (body weight 18-22 g). The MTD40 (maximum tolerated dose at day 40) values were determined by the standard procedure described by Gad and Chengelis (see, for example, “Acute Toxicology Testing,” 2nd Ed., Shayne O. Gad and Christopher P. Chengelis, pp. 186-195 (Academic Press)). In the consecutive type studies, 2 mice were dosed at low and moderate doses of 40 and 100 mg/kg. If no severe and irreversible toxicity (euthanasia is required) occurs at these doses, a new pair of animals was initiated at 180 mg/kg, which is 1.8 times higher than 100 mg/kg. Sequential dosages (about 3 doses on 3 pairs of animals, i.e. 2 mice for each drug dose) were increased by a factor of 1.8 until severe and irreversible toxicity (euthanasia is required) occurred. Then another pair of animals was initiated at the highest nonlethal dosage, and successive dosages were increased by a factor of 1.15. The result of this exercise was two dosages, one apparently nonlethal and the other lethal if severe and irreversible toxicity occurs and euthanasia is required, separated by a factor of 1.15. Six mice were dosed at each dosage. If no severe and irreversible toxicity occurred at the lower dosage and at least one with severe and irreversible toxicity occurred at the higher dose, then the lower dose was considered to be the MTD. The compounds of this invention were administered to C3H/HeJ mice by intraperitoneal injection. Drug toxicity was evaluated on mice checked daily for 45 days.

HCT116 = assay: Cell colony formation assay, HCT116 cells; type: cell-based, human; conditions: 72 hours drug exposure
Method: as §1
as §2, with “The” for “Four hundred cells (HCT 116, PC-3, NCI/ADR-RES: human breast cancer cells) or five hundred cells (VM46) were plated in 60 mm Petri dishes containing 2.7 ml of medium (modified McCoy's 5a medium) containing 10% fetal bovine serum and 100 units/ml penicillin and 100 mg/ml streptomycin. The”

VM46 = assay: Cell colony formation assay, VM46 cells; type: cell-based; conditions: 72 hours drug exposure
Method: as §1, §2, §3

SMILES | In vitro efficacy: Survival (%) of cells line PC-3 (PC-3; 1 nM) [%] | In vitro efficacy: Survival (%) of cells line PC-3 (PC-3; 5 nM) [%] | T (Surviving days after treatment of MTG-B mouse mammary Adenocarcinoma In C3H/Hej mice) [1] [days] | CD/Taxol [1] | T/C % [1] [%] | In Vivo Toxicity MTD40 (ip, mg/kg) in C3H/Hej Mice (C3H/HeJ mice) [mg/kg] | In Vitro Efficacy: Survival (%) of HCT116 (HCT116; 1 nM) [%] | In Vitro Efficacy: Survival (%) of HCT116 (HCT116; 10 nM) [%] | In Vitro Efficacy: Survival (%) of HCT116 (HCT116; 100 nM) [%] | In vitro efficacy: Survival (%) of cells line VM46 (VM46; 1 nM) [%] | In vitro efficacy: Survival (%) of cells line VM46 (VM46; 10 nM) [%]
CC[C@@]1(OC(=O)COc2ccc(Br)cc2)C(=O)OCc2c1cc1n(c2=O)Cc2cc3ccccc3nc2-1 [Example 000315, Camptothecin-20-Oester of 4-bromophenoxyacetic acid] | 87.38 | 22.24 | 18 | 4 | 300 | >150 | 100 | 0 | 0 | 64.37 | 0
CCC1(OC(=O)COc2ccc(C=O)cc2)C(=O)OCc2c1cc1n(c2=O)Cc2cc3ccccc3nc2-1 (centres unmarked) [Example 000313, Camptothecin-20-O-ester of 4-formylphenoxyacetic acid] | 89.51 | 21.16 | 9 | 1.0 | 150 | >150 | 100 | 0 | 0 | 41.58 | 0
CCC1(OC(=O)COc2ccc3ccccc3c2)C(=O)OCc2c1cc1n(c2=O)Cc2cc3ccccc3nc2-1 (centres unmarked) [Example 000224, Camptothecin-20-O-ester of 2-napthoxyacetic acid] | 87.34 | 37.98 | 7 | .3 | 117 | >150 | 100 | 0 | 0 | 62.69 | 0
CCC1(OC(=O)COc2ccc3c(c2)OCO3)C(=O)OCc2c1cc1n(c2=O)Cc2cc3ccccc3nc2-1 (centres unmarked) [Example 000419, Camptothecin-20-O-ester of 3,4-methylenedioxyphenoxyacetic acid] | 88.43 | 43.94 | 12 | 2.0 | 200 | 45 | 100 | 0 | 0 | 75.46 | 0
CCC1(OC(=O)COc2ccc(F)cc2)C(=O)OCc2c1cc1n(c2=O)Cc2cc3ccccc3nc2-1 (centres unmarked) [Example 000417, camptothecin-20-O-4-fluorophenoxyacetate] | 97.65 | 61.85 | 18 | 4 | 300 | >150 | 100 | 0 | 0 | 83.50 | 0
CC(=O)O[C@H]1C(=O)[C@@]2(C)[C@H]([C@H](OC(=O)c3ccccc3)[C@]3(O)C[C@H](OC(=O)[C@H](O)[C@@H](NC(=O)c4ccccc4)c4ccccc4)C(C)=C1C3(C)C)[C@]1(OC(C)=O)CO[C@@H]1C[C@@H]2O [Taxol, reference compound] | 82.80 | 41.36 | 9 | – | 150 | 40.6 | 86.40 | 0 | 0 | 80.59 | 70.82
CCC1(OC(=O)COc2ccc3c(C)c(Cl)c(=O)oc3c2)C(=O)OCc2c1cc1n(c2=O)Cc2cc3ccccc3nc2-1 (centres unmarked) [Example 000129] | 88.04 | 10.31 | 12 | 2.0 | 200 | 75 | 74.73 | 0 | 0 | 28.15 | 0
CCC1(OC(=O)COc2c(F)c(F)c(F)c(F)c2F)C(=O)OCc2c1cc1n(c2=O)Cc2cc3ccccc3nc2-1 (centres unmarked) [Example 000410, Camptothecin-20-O-ester of 2,3,4,5,6-pentafluorophenoxyacetic acid] | 93.31 | 23.33 | 12 | 2.0 | 200 | 45 | 88.96 | 0 | 0 | 68.75 | 0
CC[C@@]1(OC(=O)CO[C@@H]2C[C@H](C)CC[C@H]2C(C)C)C(=O)OCc2c1cc1n(c2=O)Cc2cc3ccccc3nc2-1 [Example 0002031, Camptothecin-20-O-ester of (−)-menthoxyacetic acid] | 100 | 69.44 | 12 | 2.0 | 200 | 100 | 100 | 0 | 0 | 74.84 | 0
